Assay results published in patent US9089526B2, “Pharmaceutical product and analysis model for hormone replacement therapy for women and prevention of some cancers and uterine myomas” (Universidad de Chile, priority 2009, dated 2015).

What was measured:
[1] = tested on: rat uterus; test: Estrogenic (agonist) responses in the uterus of prepubertal female rats, substance alone; format: in vivo; conditions: s.c.
Procedure: (§1) Prepubertal female rats were treated s.c. with the vehicle (C) (0.3 mL 1:9 ethanol saline), or a phytoestrogenic preparation, followed after one hour by estradiol-17β (E) Merck (0.33 mg/kg b.wt.), or its vehicle. Among the phytoestrogenic compounds used, genistein (G) Sigma (0.5 mg/kg b.wt.), two different concentrations of soybean ethanol extracts (S): 0.06 (Sd) and 0.364 (Sc) mg genistin/kg b.wt., and extracts, decoctions or extract sub-fractions of various plant species. Genistein quantification was based in the indirect valoration of genistein following 2M HCl hydrolysis and genistein quantification by HPLC (45, 46). […] Uteri were excised under ether anesthesia and histologically processed for eosinophil quantification and morphometric analysis of different parameters of estrogen action (22, 34). The following parameters were quantified in the uterus: total uterine eosinophilia (6), percentage of eosinophils according to the distribution in different uterine histological layers and to their degree of degranulation (10, 14); deep endometrial and superficial endometrial edema (47); luminal epithelial, glandular epithelial (34) and myometrial (47) cell hypertrophy, luminal epithelial RNA content (34), and number of mitotic figures for each uterine cell-type.
(§2) Statistics: According to previous studies (14) using the Tukey test of additivity (50), data on some parameters of estrogen stimulation needs to be submitted to logarithmic transformation or to square or cubic root transformation to normalize distribution. Accordingly, the transformations were performed on some of the parameters of estrogen stimulation investigated (14). Transformed and non-transformed data were subjected to further statistical analysis.
(§3) Since multiple comparisons were performed between the different experimental conditions, transformed and non-transformed data (all parameters except eosinophil degranulation and eosinophil distribution between uterine tissue layers) were subjected to the least significant difference a posteriori (LSD) test. The common variance needed for this test was estimated from a one-way unbalanced analysis of variance (ANOVA).
(§4) In uterine eosinophil degranulation and distribution studies, the χ^2 statistic was used to evaluate differences between the proportions.

[2] = tested on: rat uterus; test: Modification of estradiol-induced uterine responses in prepubertal female rats, substance given 1 h before estradiol-17β; format: in vivo; conditions: for Estrogen-induced endometrial edema: pretreatment 1 h before estradiol 0.33 mg/kg s.c.
Procedure: as §1, §2, §3, §4

[3] = tested on: human MCF-7 mammary cancer cells; test: In vitro growth (sulforhodamine B) assay, MCF-7 cells; format: cell-based; conditions: 72 h
Procedure: (§5) Cell lines. The experimental cell cultures were obtained from American Type Culture Collection (Rockville, Md., USA). MCF-7 and MDA-MB231 cells (estrogen receptor positive and negative respectively breast cancer cells) were grown in Dulbecco's modified Eagle's medium (DMEM) containing 10% FCS, 100 U/ml penicillin, 100 μg/ml streptomycin and 1 mM glutamine. Cells were seeded into 96 well microtiter plates in 100 μl at plating density of 3×10^3 cells/well. After 24 h incubation at 37° C. under a humidified 5% carbon dioxide to allow cell attachment, the cells were washed with phenol red-free and the medium was changed to phenol red-free DMEM supplemented with 4% dextran-charcoal-stripped foetal calf serum (DCFCS). Then the cells were treated with different concentrations of drugs and incubated for 72 h under the same conditions. Stock solution of compounds was prepared in ethanol and the final concentration of this solvent was kept constant at 1%. Control cultures received 1% ethanol alone.
(§6) In vitro growth inhibition assay. The sulforhodamine B assay was used according to the method of Skehan et al. 1990 (48) with some modifications (49). […] Protein-bound stain was solubilized with 100 μl of 10 mM unbuffered Tris base, and the cell density was determined using a […] (wavelength 540 nm). […]

[4] = tested on: human MDAMB-231 mammary cancer cells; test: In vitro growth (sulforhodamine B) assay, MDAMB-231 cells; format: cell-based; conditions: 72 h
Procedure: as §5, §6

[5] = pretreatment 1 h before estradiol, compared to estradiol alone
[6] = pretreatment 1 h before estradiol, mitoses
[7] = substance alone, absence of estradiol

SMILES: O=c1c(-c2ccc(O)cc2)coc2cc(O)cc(O)c12 [G, genistein]
- Edema in deep endometrial stroma ([1]; 6 h (FIG. 4)): not by G or S
- Proportion of uterine eosinophils located in the mesometrium and in the endometrium with myometrium ([1]; 6 h (FIG. 6)): all the eosinophils were in the mesometrium
- Endometrial luminal epithelial cell hypertrophy ([1]; 24 h (FIG. 2)): response similar to E
- Endometrial luminal epithelial cell RNA content ([1]; 24 h (FIG. 3)): response similar to E
- Cell proliferation (number of mitotic figures) in myometrium ([1]; 24 h (FIG. 11)): not by G, Sd or Sc
- Myometrial hypertrophy ([1]; uteri excised 24 h after treatment (FIG. 1)): response similar to E
- Estrogen-induced endometrial edema ([2]; 6 h of treatment): antagonizes
- Estrogen-induced endometrial edema ([2]; 24 h of treatment): not at 24 h
- Estrogen-induced uterine eosinophilia ([2]; pretreatment 1 h before estradiol, 6 and 24 h considered together): mainly at 6 h of treatment
- Estrogen-induced eosinophilia in the endometrial layer only ([2]; pretreatment 1 h before estradiol, 6 or 24 h): decrease in eosinophils under estrogen treatment is stronger
- Degranulation of uterine eosinophils in estrogen-treated rats [2, 5]: decreases the degranulation
- Proportion of uterine eosinophils by location (endometrium/myometrium vs mesometrium) in estrogen-treated rats [2, 5]: decrease in the proportion of eosinophils located in endometrium with myometrium
- Estrogen-induced cell proliferation in endometrial stroma [2, 6]: almost completely block
- Estrogen-induced cell proliferation in myometrium [2, 6]: almost completely block
- Estrogen-induced cell proliferation in uterine luminal epithelium [2, 6]: almost completely block
- Cell proliferation of cultured MCF-7 cells [3, 7]: increased
- Cell proliferation of cultured MCF-7 cells ([3]; substance plus estradiol): cell proliferation induced by genistein plus estradiol is higher than that of estradiol alone
- Cell proliferation of cultured MDAMB-231 cells [4, 7]: slightly inhibited
- Cell proliferation of cultured MDAMB-231 cells ([4]; substance plus estradiol): in association with estradiol the inhibitory effect is stronger than that of genistein alone
